Patent publication US12691178B2, “Polysorbate mixtures having modified fatty acid ester distribution” (Genentech, Inc., priority 2020, dated 2026)
Values after ≈ are worked out from the molar mass of the structure shown.

Experiment: FFA solubility at different formulation pH at constant PS20 concentration, fit to modified Henderson-Hasselbalch equation
Type: physicochemical
Conditions: constant of the 'pH term' of the FFA solubility model (Equation 1); for solubility: formulation containing PS20, aqueous with cosolvent or surfactant or cyclodextrin, read-out: Solubility of the non-ionized FFA (β1); for pKa: formulation containing polysorbate 20 (PS20), read-out: Experimentally determined pKa (β2)
Procedure: To create the model, first, FFA solubility was measured at different formulation pH's at a constant PS20 concentration. […] Second, FFA solubility was measured at different PS20 concentrations at a constant pH.

Row | solubility | pKa | Compound
1 | 9.97 µg/mL (≈ 49.8 µM) | 5.71 | CCCCCCCCCCCC(=O)O [Lauric (C12) Acid, lauric acid]
2 | 3.87 µg/mL (≈ 16.9 µM) | 6.67 | CCCCCCCCCCCCCC(=O)O [Myristic (C14) Acid, myristic acid]
